Experimental data published in ChEMBL document CHEMBL3046791, “Design and synthesis of 2-quinolones as antioxidants and antimicrobials: a rational approach” (Med Chem Res, 2010).

How the values were obtained:
Escherichia coli [1] = assay: Antibacterial activity against Escherichia coli at 500 ug/0.1 mL after 24 hr by agar diffusion method; format: functional
[2] = Partition coefficient, log P of the compound; format: physicochemical; conditions: octanol/water
Bacillus subtilis [3] = assay: Antibacterial activity against Bacillus subtilis at 500 ug/0.1 mL after 24 hr by agar diffusion method; format: functional
Staphylococcus aureus [4] = assay: Antibacterial activity against Staphylococcus aureus at 500 ug/0.1 mL after 24 hr by agar diffusion method; format: functional
Bacillus subtilis [5] = assay: Antibacterial activity against Bacillus subtilis at 10 ug/0.1 mL after 24 hr by agar diffusion method; format: functional
Escherichia coli [6] = assay: Antibacterial activity against Escherichia coli at 10 ug/0.1 mL after 24 hr by agar diffusion method; format: functional
Staphylococcus aureus [7] = assay: Antibacterial activity against Staphylococcus aureus at 10 ug/0.1 mL after 24 hr by agar diffusion method; format: functional
Pseudomonas aeruginosa [8] = assay: Antibacterial activity against Pseudomonas aeruginosa at 10 ug/0.1 mL after 24 hr by agar diffusion method; format: functional
Pseudomonas aeruginosa [9] = assay: Antibacterial activity against Pseudomonas aeruginosa at 500 ug/0.1 mL after 24 hr by agar diffusion method; format: functional

## Cc1cc(=O)[nH]c2cc(NC(=O)c3ccc(Cl)cc3Cl)ccc12
Escherichia coli [1]
  inhibition zone (IZ): 9 mm
[2]
  logP: 1.83

## Cc1ccccc1C(=O)Nc1ccc2c(C)cc(=O)[nH]c2c1
Bacillus subtilis [3]
  inhibition zone (IZ): 12 mm
Staphylococcus aureus [4]
  inhibition zone (IZ): 10 mm
[2]
  logP: 1.71

## CC1(C)S[C@@H]2[C@H](NC(=O)[C@H](N)c3ccc(O)cc3)C(=O)N2[C@H]1C(=O)O [AMOXICILLIN]
Bacillus subtilis [5]
  inhibition zone (IZ): 34 mm
Escherichia coli [6]
  inhibition zone (IZ): 23 mm
Staphylococcus aureus [7]
  inhibition zone (IZ): 30 mm
Pseudomonas aeruginosa [8]
  inhibition zone (IZ): 26 mm

## Cc1cc(=O)[nH]c2cc(NC(=O)c3c(Br)cccc3Br)ccc12
Bacillus subtilis [3]
  inhibition zone (IZ): 12 mm
Staphylococcus aureus [4]
  inhibition zone (IZ): 12 mm
[2]
  logP: 1.75

## Cc1cc(=O)[nH]c2cc(NC(=O)c3cccc4ccccc34)ccc12
Bacillus subtilis [3]
  inhibition zone (IZ): 13 mm
Escherichia coli [1]
  inhibition zone (IZ): 11 mm
[2]
  logP: 1.72

## Cc1ccc(C(=O)Nc2ccc3c(C)cc(=O)[nH]c3c2)cc1
Escherichia coli [1]
  inhibition zone (IZ): 13 mm
Pseudomonas aeruginosa [9]
  inhibition zone (IZ): 10 mm
[2]
  logP: 1.67

## Cc1cc(=O)[nH]c2cc(NC(=O)c3ccccc3Cl)ccc12
Bacillus subtilis [3]
  inhibition zone (IZ): 10.5 mm
[2]
  logP: 1.55

## COc1ccc(C(=O)Nc2ccc3c(C)cc(=O)[nH]c3c2)cc1OC
Bacillus subtilis [3]
  inhibition zone (IZ): 13 mm
Escherichia coli [1]
  inhibition zone (IZ): 15 mm
Staphylococcus aureus [4]
  inhibition zone (IZ): 16 mm
[2]
  logP: 1.46

## Cc1cc(=O)[nH]c2cc(NC(=O)c3cccc(Cl)c3)ccc12
[2]
  logP: 1.69

## Cc1cc(=O)[nH]c2cc(NC(=O)c3ccc([N+](=O)[O-])cc3)ccc12
Escherichia coli [1]
  inhibition zone (IZ): 11 mm
Pseudomonas aeruginosa [9]
  inhibition zone (IZ): 9 mm
[2]
  logP: 1.63

## Cc1cc(=O)[nH]c2cc(NC(=O)c3c([N+](=O)[O-])cccc3[N+](=O)[O-])ccc12
Bacillus subtilis [3]
  inhibition zone (IZ): 12.5 mm
Escherichia coli [1]
  inhibition zone (IZ): 13 mm
Pseudomonas aeruginosa [9]
  inhibition zone (IZ): 10 mm
[2]
  logP: 1.82

## Cc1cc(=O)[nH]c2cc(NC(=O)c3ccc(F)cc3)ccc12
Bacillus subtilis [3]
  inhibition zone (IZ): 12 mm
Staphylococcus aureus [4]
  inhibition zone (IZ): 11 mm
[2]
  logP: 1.61

## CC(=O)Nc1ccc2c(C)cc(=O)[nH]c2c1
Bacillus subtilis [3]
  inhibition zone (IZ): 13 mm
Staphylococcus aureus [4]
  inhibition zone (IZ): 11 mm
[2]
  logP: 0.995

## Cc1cc(O)nc2cc(N)ccc12
Bacillus subtilis [3]
  inhibition zone (IZ): 10 mm
Escherichia coli [1]
  inhibition zone (IZ): 10 mm
Pseudomonas aeruginosa [9]
  inhibition zone (IZ): 11 mm
Staphylococcus aureus [4]
  inhibition zone (IZ): 11 mm
[2]
  logP: 0.793

## Cc1cc(=O)[nH]c2cc(NC(=O)c3ccccc3)ccc12
Bacillus subtilis [3]
  inhibition zone (IZ): 12 mm
Pseudomonas aeruginosa [9]
  inhibition zone (IZ): 11 mm
[2]
  logP: 1.66

## Cc1cc(=O)[nH]c2cc(NC(=O)c3ccc(Cl)cc3)ccc12
Escherichia coli [1]
  inhibition zone (IZ): 9 mm
[2]
  logP: 1.69

## Cc1cc(=O)[nH]c2cc(NC(=O)/C=C/c3ccccc3)ccc12
Bacillus subtilis [3]
  inhibition zone (IZ): 11 mm
Escherichia coli [1]
  inhibition zone (IZ): 12 mm
[2]
  logP: 1.69
